Active and inactive are the calls of the source. The calls are words filed in the database; no cut-off is given here.

By IC50 is commonly meant the point on the concentration scale where inhibition reaches its midpoint.

Data set [1] in a line: Total antioxidant capacity of the compound at 50 uM relative to control. It is filed as physicochemical.
The test system of the next data set is HCT-116. The experiment in a line: Cytotoxicity against human HCT116 cells up to 200 uM by MTT assay. It is filed as cell-based.
Data set [2] in a line: Total antioxidant capacity of the compound at 100 uM relative to control. It is filed as physicochemical.
In another data set the test system is SW480. The data set can be described thus: Cytotoxicity against human SW480 cells up to 200 uM by MTT assay. It is filed as cell-based. Background: Tetrazolium dyes change colour on reduction, which living cells bring about.
The nature of data set [3]: Total antioxidant capacity of the compound at 25 uM relative to control. It is filed as physicochemical.
Data set [4] can be described thus: Total antioxidant capacity of the compound at 200 uM relative to control. It is filed as physicochemical.
For data set [5], the system named is Radical scavenging activity. The experiment in a line: Antioxidant activity assessed as DPPH free radical scavenging activity after 30 mins. It is filed as functional. In general terms: DPPH is a stable violet radical that fades when it is reduced.
In data set [6] the test system is Liver. The experiment in a line: Antioxidant activity against Fe2+/ascorbic acid-induced lipid peroxidation in mouse liver homogenates after 1.5 hrs. It is filed as functional, tissue-based.
In data set [7] the test system is Liver. The data set can be described thus: Antioxidant activity against Fe2+/ascorbic acid-induced lipid peroxidation in mouse liver homogenates assessed as total MDA level at 200 uM after 1.5 hrs. It is filed as functional, tissue-based.

Take `O=C1CC(c2c(O)cc(/C=C/c3ccc(O)c(O)c3)oc2=O)CN1` (stereo unspecified): the TAC is reported as 2.78 U in data set [1], 4.24 U in [2], 2.41 U in [3] and 6.91 U in data set [4]. Further, the Activity result with HCT-116 and in the data set with SW480 was “Non-toxic” each time. The IC50 in [5] is above 200 µM.

Turning to `O=C1O[C@H]([C@@H](O)CO)C(O)=C1O` [ASCORBIC ACID], the TAC in data set [1] is given as 17.42 U; in [2], 18.97 U; in [3], 17.33 U; in [4], 21.68 U.

For the molecule `O=C(O)CCC(c1c(O)cc(/C=C/c2ccc(O)c(O)c2)oc1=O)c1c(O)cc(/C=C/c2ccc(O)c(O)c2)oc1=O`, the TAC in data set [1] is on record as 8.41 U; in data set [2], 9.74 U; in [3] it was 6.82 U; in [4] it was 10.74 U. The Activity entry with HCT-116 and in the data set with SW480 was “Non-toxic” each time. Moreover, in [5], the IC50 is 88.7 µM.

Regarding `COC(=O)CCC(c1c(O)cc(/C=C/c2ccc(O)c(O)c2)oc1=O)c1c(O)cc(/C=C/c2ccc(O)c(O)c2)oc1=O`, the TAC in [1] amounted to 3.4 U; in data set [2], 6.5 U; in [3], 3 U; in [4] it was 11.06 U. In addition, the Activity result with HCT-116 and in the data set on SW480 was “Non-toxic” throughout. The IC50 in data set [5] is 95.3 µM.

Consider `O=c1cc(O)cc(/C=C/c2ccc(O)c(O)c2)o1` [HISPIDIN], for which the TAC in data set [1] was found to be 9.27 U; in data set [2], 10.03 U; in data set [3] it was 5.83 U; in data set [4] it was 10.25 U. Further, the IC50 is above 200 µM in the data set with Liver [6] and 58.8 µM in data set [5]. The Activity entry with HCT-116 and with SW480 was “Non-toxic” throughout. In the data set with Liver [7], the outcome was Active.

As for `CC(C)C(c1c(O)cc(/C=C/c2ccc(O)c(O)c2)oc1=O)c1c(O)cc(/C=C/c2ccc(O)c(O)c2)oc1=O`, the TAC is 2.88 U in [1], 4.8 U in data set [2], 2.1 U in [3] and 5.39 U in data set [4]. The IC50 (in the data set on Liver [6]; in data set [5]) was above 200 µM in each case. The Activity result in the data set on HCT-116 and with SW480 was “Non-toxic” throughout. In the data set on Liver [7], the result was Active.

On to `CC(C)CC(c1c(O)cc(/C=C/c2ccc(O)c(O)c2)oc1=O)c1c(O)cc(/C=C/c2ccc(O)c(O)c2)oc1=O`, for which the TAC in data set [1] came out at 5.28 U; in [2], 7.6 U; in [3], 3.61 U; in [4], 10.81 U. In addition, the values for the IC50 (with Liver [6]; in data set [5]) were above 200 µM and 95.9 µM, respectively. For the same molecule, the Activity result in the data set on HCT-116 and in the data set on SW480 was “Non-toxic” each time. Further, the outcome in the data set with Liver [7] was Active.

As to `CC(c1c(O)cc(/C=C/c2ccc(O)c(O)c2)oc1=O)c1c(O)cc(/C=C/c2ccc(O)c(O)c2)oc1=O` [PINILLIDINE], the TAC is listed as 2.67 U in [1], 3.46 U in data set [2], 2.02 U in data set [3] and 5.16 U in data set [4]. The IC50 (in the data set on Liver [6]; in data set [5]) was above 200 µM throughout. In addition, the Activity result with HCT-116 and in the data set with SW480 was “Non-toxic” throughout. Also, the outcome in the data set on Liver [7] was Active.

(Values after ChEMBL document CHEMBL2406917, “Phaeolschidins A-E, five hispidin derivatives with antioxidant activity from the fruiting body of Phaeolus schweinitzii collected in the Tibetan Plateau” (J Nat Prod, 2013).)
